As usually defined, the Ki is a dissociation constant, usually derived from enzyme kinetics or from competition with a known ligand. Lower therefore signals higher affinity.

The source of these data is patent US11549123B2, “Plant EPSP synthases and methods of use” (PIONEER HI-BRED INTERNATIONAL, INC., priority 2015, dated 2023).

Holding throughout (assay type): biochemical
Assay [1] deals with T1, Zea mays EPSPS variant Zm-H6 (868-H6) with R61Y (H6-R61Y) (Zea mays, UniProt O24566, A1R/A3W/A415G/A71Q/D401G/E301S/E390G/G101A/I207L/K83R/L97C/R60Y/T278A/T360S/T440Q/V437R).
T1 construct: 868-H6 plus R61Y; E. coli BL21(DE3), Ni-NTA purified
T1 sequence (O24566 with tags, fused parts or gaps A1R/A3W/R60Y/A71Q/K83R/L97C/G101A/I207L/T278A/E301S/T360S/E390G/D401G/A415G/V437R/T440Q): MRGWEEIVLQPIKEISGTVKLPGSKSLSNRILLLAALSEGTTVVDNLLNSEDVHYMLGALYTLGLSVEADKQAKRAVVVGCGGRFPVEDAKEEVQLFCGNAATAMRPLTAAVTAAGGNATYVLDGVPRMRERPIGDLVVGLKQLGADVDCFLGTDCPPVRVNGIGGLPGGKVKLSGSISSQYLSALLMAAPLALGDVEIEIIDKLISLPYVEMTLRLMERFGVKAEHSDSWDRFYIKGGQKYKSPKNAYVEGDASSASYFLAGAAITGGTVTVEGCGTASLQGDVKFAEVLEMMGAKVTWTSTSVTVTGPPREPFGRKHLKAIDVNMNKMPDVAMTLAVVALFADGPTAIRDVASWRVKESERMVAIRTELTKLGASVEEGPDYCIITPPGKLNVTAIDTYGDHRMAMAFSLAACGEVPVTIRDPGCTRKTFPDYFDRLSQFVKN
The assay is described as follows: Substrate saturation kinetic analysis with glyphosate, H6-R61Y.

Assay [2] concerns the target Bacterial EPSPS (CP4) (Agrobacterium sp., UniProt Q9R4E4). The assay is described as follows: Rapid two-rate method for (kcat/KM)*KI, bacterial EPSPS (CP4). The text has this: There are several practical considerations for accurately estimating (kcat/KM)*KI with the rapid method. […] 2) The inhibitor concentration must be adjusted so as to obtain a degree of inhibition that minimally amplifies the error in the term v0-vi in Equation 3. If inhibition is too little, v0-vi will be small, and the error in the multiplier vi×v0/(v0-vi) will be large. […] 3) Substrate concentration should be set at the approximate KM of the parental variant(s), subject to the sensitivity of the assay. High substrate concentration obscures sensitivity to the inhibitor and reduces stringency for capturing improvements in KM. Depending on the necessity for speed, there exists opportunity for customizing enzyme and inhibitor concentrations. […] The rapid method was repeated for those and obtained data that correlated better with data obtained by substrate saturation analysis. For screening purposes however, that correlation step is not necessary. Conditions can be set so that variants with a pre-determined minimal fitness level are accurately quantified.
In Table 15, parameters above the heavy line for the rapid method were obtained under standard conditions. For variants shown below the heavy line, the rapid analysis was repeated with enzyme or glyphosate concentrations adjusted as needed to generate sufficient signal within the limits for linear initial rates.

The target of assay [3] is T2, Zea mays EPSPS variant WT-FS-E (102A 302S 391G 438R) (Zea mays, UniProt O24566, E301S/E390G/G101A/V437R).
T2 sequence (O24566 with tags, fused parts or gaps G101A/E301S/E390G/V437R): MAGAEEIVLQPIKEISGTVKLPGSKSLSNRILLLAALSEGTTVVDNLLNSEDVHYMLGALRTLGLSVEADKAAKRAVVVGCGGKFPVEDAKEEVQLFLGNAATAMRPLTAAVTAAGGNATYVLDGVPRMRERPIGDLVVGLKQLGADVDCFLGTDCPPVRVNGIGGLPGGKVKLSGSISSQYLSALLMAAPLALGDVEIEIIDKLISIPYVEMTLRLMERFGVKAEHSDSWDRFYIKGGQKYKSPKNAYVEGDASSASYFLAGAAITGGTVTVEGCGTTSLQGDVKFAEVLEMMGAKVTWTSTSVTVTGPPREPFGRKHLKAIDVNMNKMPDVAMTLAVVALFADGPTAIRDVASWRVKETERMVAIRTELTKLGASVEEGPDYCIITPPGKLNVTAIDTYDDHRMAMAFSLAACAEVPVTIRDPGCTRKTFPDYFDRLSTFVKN
The assay is described as follows: EPSPS substrate saturation kinetics, WT-FS-E. As for the experimental part: EPSPS activity was determined by quantifying the phosphate generated from the EPSPS reaction. Release of inorganic phosphate was coupled to reaction with 2-amino-6-mercapto-7-methylpurine ribonucleoside, catalyzed by purine-nucleoside phosphorylase (M R Webb, Proc. Natl. Acad. Sci. 89:4884-4887, 1992). The absorbance change that occurs was monitored at 360 nm, where the extinction is 11,200 M^−1 cm^−1, with a Spectramax plate reader (Molecular Devices). To determine kinetic parameters, the varied substrate was present at seven concentrations (the eighth being the blank, containing no substrate) ranging from 4 to 400 uM and the unvaried substrate present at saturation. Six microliters of 50-fold concentrated stock solutions of the varied substrate were placed in the wells of the 96-well assay plate and reactions were started with the addition of a mixture containing 25 mM Hepes, pH 7, 100 mM KCl, 0.3 mM 2-amino-6-mercapto-7-methylpurine ribonucleosde, 1 uM (1 unit/ml) purine-nucleoside phosphorylase (Sigma N8264) and 200 uM of the non-varied substrate. Reactions were monitored with a Spectramax plate reader. […] KI was then calculated from the following form of the Michaelis-Menten equation for competitive inhibition: KI=KM[I]/(KM app−KM) KM approximates the dissociation constant of the enzyme-substrate complex while kcat is the rate of conversion of substrate to product when the substrate concentration is saturating. kcat/KM is a widely accepted parameter for catalytic efficiency when substrate concentration is low (˜KM). […] The parameter kcat/KM×KI is used to quantify both catalytic efficiency and insensitivity and thus the overall fitness of the enzyme. […]
The vector DNA of the library was transformed into the BL21(DE3) Tuner AroA knockout strain and the cells were plated onto M9 medium containing 50 mM glyphosate. A small aliquot of the transformed cells was plated on LB, by which it was determined that 1.1×10^8 colony forming units, or 20% of the theoretical library size, were plated and screened. […]

Take `O=C(O)CNCP(=O)(O)O` [glyphosate, N-phosphonomethylglycine]: the Ki was 309 µM in assay [1] and 1150 µM in assay [3]. In addition, the “(kcat/KM)*KI” value in assay [1] (substrate saturation, H6-R61Y) is 1640; in assay [2] (rapid method repeated, CP4, [E] 0.007 uM, [Gly] 2000 uM), 111800; in assay [2] (rapid method, Bacterial EPSPS, [E] 0.07 uM, [Gly] 1000 uM) it was 64262; in assay [3] (PEP as substrate, glyphosate as inhibitor), 2763.

Regarding `C=C(OP(=O)(O)O)C(=O)O` [PEP, phosphoenolpyruvate], the “improvement in KM for PEP” value in assay [3] (compared to G102A alone) came out at 2 fold.
